Source: patent US5625043A, “Anthracyclines with unusually high activity against cells resistant to doxorubicin and its analogs” (Priebe; Waldemar, priority 1995, dated 1997)

Key:
purified DNA = conditions: compared with anthracycline; cited from earlier work
[1] = system: P388 and L1210 leukemic cells and B16-BL6 melanoma cells; conditions: cited from earlier work
P-gp = conditions: not told; cited from earlier work
[2] = system: transplanted MDR L1210 cells; conditions: cited from earlier work
membrane = conditions: compared with anthracycline; cited from earlier work
J774.2 cells = test: Cytotoxicity against J774.2 cells; type: cell-based, murine; conditions: Mus musculus, J774.2; read-out: ID50 (the source's name)
[3] = system: cultured murine and human tumor cells; conditions: compared with anthracycline; cited from earlier work
[4] = system: purified mammalian topoisomerase II; conditions: cited from earlier work
[5] = system: MDR J774.2 cells selected with vinblastine; conditions: MDR J774.2 selected with vinblastine; cited from earlier work
AD 198^R cells = AD 198^R cells versus drug-sensitive cells; cited from earlier work
J7/A300 cells = test: Cytotoxicity against AD 198-resistant J7/A300 cells; type: cell-based, murine
J7/40V cells = test: Cytotoxicity against vinblastine-resistant J7/40V cells; type: cell-based, murine
G2/M blockade = conditions: compared with anthracycline; cited from earlier work
DNA = conditions: alkaline elution assays; cited from earlier work
[6] = system: variant CCRF-CEM leukemic cells; conditions: cited from earlier work
RNA versus DNA synthesis = conditions: compared with anthracycline; cited from earlier work

CCCCC(=O)OCC(=O)[C@]1(O)Cc2c(O)c3c(c(O)c2[C@@H](O[C@H]2C[C@H](NCc4ccccc4)[C@H](O)[C@H](C)O2)C1)C(=O)c1c(OC)cccc1C3=O [AD 198]
binding to purified DNA (purified DNA): weaker binding to purified DNA | ability to circumvent MDR [1]: ability to circumvent MDR | transport by P-gp from the cell (P-gp): inability of P-gp to transport AD 198 from the cell | efficacy in vivo [2]: limited efficacy | membrane lytic activity (membrane): pronounced membrane lytic activity | IC50 (J774.2 cells): 49 nM | cytotoxicity [3]: enhanced cytotoxicity | inhibition of purified mammalian topoisomerase II [4]: lack of inhibition | cross-resistance [5]: cross-resistant to AD 198 | intracellular level of AD 198 (AD 198^R cells): high levels of intracellular AD 198 similar to that of drug-sensitive cells | resistance of cell line to the selecting drug (J7/A300 cells; AD 198 resistant J7/A300 cells): 15 -fold | RI J7/A300 (J7/A300 cells; J7/A300 versus J774.2): 15 | IC50 (J7/A300 cells; Mus musculus, J7/A300, read-out: ID50 (the source's name)): 748 nM | RI J7/40V (J7/40V cells; J7/40V versus J774.2): 14 | IC50 (J7/40V cells; Mus musculus, J7/40V, read-out: ID50 (the source's name)): 663 nM | G2/M blockade (G2/M blockade): irreversible G2 /M blockade | protein-associated DNA strand breaks (DNA): significant levels of protein-associated DNA strand breaks | ability to circumvent MDR and resistance due to altered topoisomerase II activity [6]: ability to circumvent MDR | inhibition of RNA versus DNA synthesis (RNA versus DNA synthesis): preferential inhibition of RNA versus DNA synthesis
